Measured values taken from ChEMBL document CHEMBL4715815, “Design, synthesis and biological evaluation of 7H-pyrrolo[2,3-d]pyrimidin-4-amine derivatives as selective Btk inhibitors with improved pharmacokinetic properties for the treatment of rheumatoid arthritis” (Eur J Med Chem, 2018).
Calls of active or inactive are those of the source. The rule behind the calls is not given here.

Columns and labels:
[1] = biological target: T1, Tyrosine-protein kinase BTK (Homo sapiens, UniProt Q06187); experiment: Inhibition of BTK in human U2932 cells assessed as reduction in PLCgamma2 Y1217 phosphorylation at 0.03 to 10 uM incubated for 1 hr by Western blot analysis; format: cell-based; conditions: dose 0.03-10 µM
[2] = biological target: Tyrosine-protein kinase Lck (Homo sapiens, UniProt P06239); experiment: Inhibition of recombinant human LCK using Ulight-Poly GAT[EAY(1:1:1)]n as substrate incubate for 10 mins by LANCE assay
[3] = biological target: Mitogen-activated protein kinase kinase kinase 3 (Homo sapiens, UniProt Q99759); experiment: Inhibition of MEKK3 (unknown origin)
[4] = Metabolic stability in rat liver microsomes assessed as half life at 100 uM/L measured upto 90 mins by LC-MS/MS analysis; format: ADME, Microsome
[5] = biological target: Dual specificity mitogen-activated protein kinase kinase 1 (Homo sapiens, UniProt Q02750); experiment: Inhibition of recombinant human MEK1 using inactivated ERK2 as substrate incubate for 60 mins by LANCE assay
[6] = AUC (0 to t) in Sprague-Dawley rat at 3 mg/kg, iv measured up to 24 hrs by LC-MS/MS analysis; format: ADME, organism-based; design: route intravenous, dose 3 mg/kg, time <=24; conditions: in vivo
[7] = biological target: Calcium/calmodulin-dependent protein kinase kinase 2 (Homo sapiens, UniProt Q96RR4); experiment: Inhibition of CAMKK2 (unknown origin)
[8] = Inhibition of GSK3alpha/GSK3beta (unknown origin); design: species or system Homo sapiens
[9] = biological target: Dual specificity mitogen-activated protein kinase kinase 2 (Homo sapiens, UniProt P36507); experiment: Inhibition of MEK2 (unknown origin)
[10] = biological target: T1, Tyrosine-protein kinase BTK; experiment: Inhibition of BTK in human Raji cells assessed as reduction in BTK Y223 phosphorylation incubated for 1 hr by Western blot analysis; format: cell-based; conditions: dose 0.03-10 µM
[11] = biological target: Tyrosine-protein kinase Blk (Homo sapiens, UniProt P51451); experiment: Inhibition of BLK (unknown origin)
[12] = Metabolic stability in rat liver microsomes assessed as intrinsic clearance at 100 uM/L measured upto 90 mins by LC-MS/MS analysis; format: ADME, Microsome; conditions: 1.5 h
[13] = biological target: Tyrosine-protein kinase HCK (Homo sapiens, UniProt P08631); experiment: Inhibition of HCK (unknown origin)
[14] = biological target: Ribosomal protein S6 kinase alpha-1 (Homo sapiens, UniProt Q15418); experiment: Inhibition of RSK1 (unknown origin)
[15] = Clearance in Sprague-Dawley rat at 3 mg/kg, iv measured up to 24 hrs by LC-MS/MS analysis; format: ADME, organism-based; conditions: in vivo
[16] = Metabolic stability in human liver microsomes assessed as intrinsic clearance at 100 uM/L measured upto 90 mins by LC-MS/MS analysis; format: ADME, Microsome; conditions: 1.5 h
[17] = biological target: Mitogen-activated protein kinase kinase kinase 7 (Homo sapiens, UniProt O43318); experiment: Inhibition of recombinant human TAK1 using Ulight-FLGFTYVAP as substrate incubate for 90 mins by LANCE assay
[18] = Metabolic stability in dog liver microsomes assessed as half life at 100 uM/L measured upto 90 mins by LC-MS/MS analysis; format: ADME, Canis lupus familiaris, Microsome
[19] = biological target: Receptor tyrosine-protein kinase erbB-4 (Homo sapiens, UniProt Q15303); experiment: Inhibition of ErBB4 (unknown origin)
[20] = Toxicity in BALB/c mouse assessed as effect on sensitive to light at 2 g/kg, po measured after 7 days of administration; conditions: in vivo, 168 h
[21] = Inhibition of PKC (unknown origin); design: species or system Homo sapiens
[22] = biological target: Tyrosine-protein kinase CSK (Homo sapiens, UniProt P41240); experiment: Inhibition of CSK (unknown origin)
[23] = biological target: Serine/threonine-protein kinase mTOR (Homo sapiens, UniProt P42345); experiment: Inhibition of mTOR (unknown origin)
[24] = Metabolic stability in monkey liver microsomes assessed as half life at 100 uM/L measured upto 90 mins by LC-MS/MS analysis; format: ADME, Macaca mulatta, Microsome; conditions: rhesus monkey
[25] = system: Mus musculus; experiment: Antiarthritic activity in DBA/1J mouse model of collagen-induced arthritis assessed as reduction in paw thickness at 20 mg/kg, po administered for 30 days and measured on day 30; format: functional, organism-based; conditions: time 30.0 day
[26] = Toxicity in BALB/c mouse assessed as clinical signs at 2 g/kg, po measured after 7 days of administration; conditions: in vivo, 168 h
[27] = biological target: Tyrosine-protein kinase JAK3 (Homo sapiens, UniProt P52333); experiment: Inhibition of recombinant human JAK3 using Ulight-CAGAGAIETDKEYYTVKD as substrate incubate for 60 mins by LANCE assay
[28] = Toxicity in BALB/c mouse assessed as normal behavior at 2 g/kg, po measured after 7 days of administration; conditions: in vivo, 168 h
[29] = biological target: Dual specificity mitogen-activated protein kinase kinase 6 (Homo sapiens, UniProt P52564); experiment: Inhibition of MKK6 (unknown origin)
[30] = biological target: T1, Tyrosine-protein kinase BTK; experiment: Inhibition of BTK in human U2932 cells assessed as reduction in BTK Y551 phosphorylation at 0.03 to 10 uM incubated for 1 hr by Western blot analysis; format: cell-based; conditions: dose 0.03-10 µM
[31] = Metabolic stability in mouse liver microsomes assessed as half life at 100 uM/L measured upto 90 mins by LC-MS/MS analysis; format: ADME, Microsome
[32] = biological target: Proto-oncogene tyrosine-protein kinase Src (Homo sapiens, UniProt P12931); experiment: Inhibition of recombinant human SRC using Ulight-Poly GAT[EAY(1:1:1)]n as substrate incubate for 10 mins by LANCE assay
[33] = Clearance in Sprague-Dawley rat at 3 mg/kg, po measured up to 24 hrs by LC-MS/MS analysis; format: ADME, organism-based; conditions: in vivo
[34] = system: Mus musculus; experiment: Antiarthritic activity in DBA/1J mouse model of collagen-induced arthritis assessed as reduction in edema formation at 20 mg/kg, po administered for 30 days and measured on day 30; format: functional, organism-based; conditions: time 30.0 day
[35] = Toxicity in BALB/c mouse assessed as free movement at 2 g/kg, po measured after 7 days of administration; conditions: in vivo, 168 h
[36] = biological target: Tyrosine-protein kinase FRK (Homo sapiens, UniProt P42685); experiment: Inhibition of FRK (unknown origin)
[37] = Toxicity in BALB/c mouse assessed as mouse survival at 2 g/kg, po measured after 7 days of administration; conditions: in vivo, 168 h
[38] = AUC (0 to t) in Sprague-Dawley rat at 3 mg/kg, po measured up to 24 hrs by LC-MS/MS analysis; format: ADME, organism-based; design: route oral, dose 3 mg/kg, time <=24; conditions: in vivo
[39] = Cmax in Sprague-Dawley rat at 3 mg/kg, po measured up to 24 hrs by LC-MS/MS analysis; format: ADME, organism-based; design: route oral, dose 3 mg/kg, time <=24; conditions: in vivo
[40] = biological target: T1, Tyrosine-protein kinase BTK; experiment: Inhibition of BTK in human Daudi cells assessed as reduction in BTK Y223 phosphorylation incubated for 1 hr by Western blot analysis; format: cell-based; conditions: dose 0.03-10 µM
[41] = biological target: Calcium/calmodulin-dependent protein kinase kinase 1 (Homo sapiens, UniProt Q8N5S9); experiment: Inhibition of CAMKK1 (unknown origin)
[42] = biological target: Tyrosine-protein kinase Fgr (Homo sapiens, UniProt P09769); experiment: Inhibition of FGR (unknown origin)
Sequence of Tyrosine-protein kinase Fgr (P09769 whole entry): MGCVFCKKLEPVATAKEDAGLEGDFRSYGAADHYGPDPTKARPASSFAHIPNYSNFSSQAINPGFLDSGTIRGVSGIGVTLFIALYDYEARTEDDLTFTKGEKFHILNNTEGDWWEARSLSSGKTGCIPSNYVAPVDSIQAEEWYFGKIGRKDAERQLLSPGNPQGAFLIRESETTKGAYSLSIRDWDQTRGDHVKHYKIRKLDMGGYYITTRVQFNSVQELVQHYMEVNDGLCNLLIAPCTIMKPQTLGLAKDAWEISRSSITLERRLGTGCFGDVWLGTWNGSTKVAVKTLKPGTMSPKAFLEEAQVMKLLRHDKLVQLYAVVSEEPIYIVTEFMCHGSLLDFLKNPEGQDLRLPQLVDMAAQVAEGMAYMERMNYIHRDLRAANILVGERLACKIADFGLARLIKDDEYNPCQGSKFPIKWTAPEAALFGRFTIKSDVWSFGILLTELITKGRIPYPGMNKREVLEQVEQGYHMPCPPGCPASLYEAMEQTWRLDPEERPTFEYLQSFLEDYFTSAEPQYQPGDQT

T1 sequence (Q06187 whole entry): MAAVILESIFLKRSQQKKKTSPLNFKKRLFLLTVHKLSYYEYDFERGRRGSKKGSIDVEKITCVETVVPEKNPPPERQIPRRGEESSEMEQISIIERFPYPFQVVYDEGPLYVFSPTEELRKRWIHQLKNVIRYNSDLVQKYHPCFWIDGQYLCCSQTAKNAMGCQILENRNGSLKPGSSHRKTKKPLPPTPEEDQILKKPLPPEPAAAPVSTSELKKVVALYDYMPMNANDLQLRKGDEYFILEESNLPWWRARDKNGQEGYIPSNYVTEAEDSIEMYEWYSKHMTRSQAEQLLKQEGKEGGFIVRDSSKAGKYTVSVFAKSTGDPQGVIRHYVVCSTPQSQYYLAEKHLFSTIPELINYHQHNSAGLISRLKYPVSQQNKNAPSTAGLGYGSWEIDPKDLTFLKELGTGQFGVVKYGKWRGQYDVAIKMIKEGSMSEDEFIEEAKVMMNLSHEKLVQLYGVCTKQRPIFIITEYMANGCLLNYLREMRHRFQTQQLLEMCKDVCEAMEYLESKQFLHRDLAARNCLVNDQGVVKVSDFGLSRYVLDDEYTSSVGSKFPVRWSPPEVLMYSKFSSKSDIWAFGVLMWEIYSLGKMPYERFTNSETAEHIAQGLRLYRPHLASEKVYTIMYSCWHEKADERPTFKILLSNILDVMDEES
Sequence of Mitogen-activated protein kinase kinase kinase 7 (O43318 whole entry): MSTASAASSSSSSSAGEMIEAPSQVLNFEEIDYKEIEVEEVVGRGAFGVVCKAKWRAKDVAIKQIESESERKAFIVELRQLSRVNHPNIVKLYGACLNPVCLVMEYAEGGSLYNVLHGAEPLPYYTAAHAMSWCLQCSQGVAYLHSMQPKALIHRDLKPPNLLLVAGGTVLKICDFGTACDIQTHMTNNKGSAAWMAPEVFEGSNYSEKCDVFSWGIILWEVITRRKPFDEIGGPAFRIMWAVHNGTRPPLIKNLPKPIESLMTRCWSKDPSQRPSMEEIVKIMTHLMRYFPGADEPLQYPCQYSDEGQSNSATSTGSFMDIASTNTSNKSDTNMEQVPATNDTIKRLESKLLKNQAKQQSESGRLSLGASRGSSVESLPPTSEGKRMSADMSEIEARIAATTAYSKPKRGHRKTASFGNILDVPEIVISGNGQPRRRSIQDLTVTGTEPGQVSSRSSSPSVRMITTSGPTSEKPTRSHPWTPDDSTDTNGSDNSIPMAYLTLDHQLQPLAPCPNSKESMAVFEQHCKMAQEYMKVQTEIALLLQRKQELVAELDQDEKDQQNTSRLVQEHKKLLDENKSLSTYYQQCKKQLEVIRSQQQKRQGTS
Sequence of Tyrosine-protein kinase JAK3 (P52333 whole entry): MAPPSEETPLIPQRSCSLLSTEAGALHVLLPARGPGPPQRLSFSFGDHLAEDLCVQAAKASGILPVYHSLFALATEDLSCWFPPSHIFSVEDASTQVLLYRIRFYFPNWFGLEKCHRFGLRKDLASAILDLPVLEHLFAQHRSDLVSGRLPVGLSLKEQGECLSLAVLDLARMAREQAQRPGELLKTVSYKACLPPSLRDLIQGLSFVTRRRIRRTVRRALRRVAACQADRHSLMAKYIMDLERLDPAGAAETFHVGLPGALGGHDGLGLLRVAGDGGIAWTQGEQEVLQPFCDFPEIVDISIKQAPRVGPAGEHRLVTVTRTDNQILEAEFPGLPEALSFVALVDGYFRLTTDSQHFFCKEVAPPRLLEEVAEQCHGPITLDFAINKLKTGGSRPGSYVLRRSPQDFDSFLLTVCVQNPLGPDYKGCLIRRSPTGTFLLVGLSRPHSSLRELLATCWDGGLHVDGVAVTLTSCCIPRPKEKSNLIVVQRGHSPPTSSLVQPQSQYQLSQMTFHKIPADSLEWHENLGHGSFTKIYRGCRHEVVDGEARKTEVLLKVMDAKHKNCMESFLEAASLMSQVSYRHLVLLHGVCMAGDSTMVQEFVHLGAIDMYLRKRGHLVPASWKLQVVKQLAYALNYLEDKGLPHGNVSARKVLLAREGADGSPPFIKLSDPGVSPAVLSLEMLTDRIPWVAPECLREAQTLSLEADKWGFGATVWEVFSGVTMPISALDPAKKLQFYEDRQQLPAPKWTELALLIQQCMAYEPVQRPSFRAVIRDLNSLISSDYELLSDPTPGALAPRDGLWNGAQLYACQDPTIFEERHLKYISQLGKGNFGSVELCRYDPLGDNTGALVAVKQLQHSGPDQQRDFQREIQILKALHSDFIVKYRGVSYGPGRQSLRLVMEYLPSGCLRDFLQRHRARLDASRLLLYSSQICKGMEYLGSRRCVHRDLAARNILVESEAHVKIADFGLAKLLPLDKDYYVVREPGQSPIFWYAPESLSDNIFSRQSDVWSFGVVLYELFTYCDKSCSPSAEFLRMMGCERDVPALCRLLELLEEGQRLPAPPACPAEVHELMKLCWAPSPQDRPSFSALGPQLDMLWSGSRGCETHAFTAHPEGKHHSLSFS
Sequence of Dual specificity mitogen-activated protein kinase kinase 2 (P36507 whole entry): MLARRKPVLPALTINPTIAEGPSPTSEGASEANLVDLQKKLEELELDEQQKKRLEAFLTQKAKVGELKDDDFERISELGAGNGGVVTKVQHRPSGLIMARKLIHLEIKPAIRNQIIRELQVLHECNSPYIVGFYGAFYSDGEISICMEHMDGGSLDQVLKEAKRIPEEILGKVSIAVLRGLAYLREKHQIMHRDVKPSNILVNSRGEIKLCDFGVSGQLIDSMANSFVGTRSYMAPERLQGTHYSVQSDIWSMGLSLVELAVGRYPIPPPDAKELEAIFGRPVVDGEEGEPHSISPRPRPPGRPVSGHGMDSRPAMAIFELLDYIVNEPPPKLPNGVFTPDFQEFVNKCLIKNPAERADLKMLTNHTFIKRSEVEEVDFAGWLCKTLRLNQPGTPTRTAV
Sequence of Dual specificity mitogen-activated protein kinase kinase 1 (Q02750 whole entry): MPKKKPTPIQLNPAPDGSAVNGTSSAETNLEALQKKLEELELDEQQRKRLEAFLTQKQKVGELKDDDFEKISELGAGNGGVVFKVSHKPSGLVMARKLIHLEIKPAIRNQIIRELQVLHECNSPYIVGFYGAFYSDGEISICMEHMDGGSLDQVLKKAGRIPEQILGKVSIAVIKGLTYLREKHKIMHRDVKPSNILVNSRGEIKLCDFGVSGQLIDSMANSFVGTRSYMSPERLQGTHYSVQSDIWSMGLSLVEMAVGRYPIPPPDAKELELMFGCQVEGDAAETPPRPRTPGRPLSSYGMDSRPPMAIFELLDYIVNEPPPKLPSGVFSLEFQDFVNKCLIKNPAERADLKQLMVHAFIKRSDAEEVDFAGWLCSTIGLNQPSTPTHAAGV
Sequence of Dual specificity mitogen-activated protein kinase kinase 6 (P52564 whole entry): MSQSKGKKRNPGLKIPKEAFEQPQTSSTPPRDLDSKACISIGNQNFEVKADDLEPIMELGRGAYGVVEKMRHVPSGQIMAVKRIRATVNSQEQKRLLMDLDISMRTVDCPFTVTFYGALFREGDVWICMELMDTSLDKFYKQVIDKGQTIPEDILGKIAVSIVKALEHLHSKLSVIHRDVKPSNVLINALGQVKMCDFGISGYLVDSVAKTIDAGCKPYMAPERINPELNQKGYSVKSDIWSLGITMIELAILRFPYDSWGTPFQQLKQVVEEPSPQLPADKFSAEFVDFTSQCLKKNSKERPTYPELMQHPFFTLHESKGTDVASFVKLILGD
Sequence of Ribosomal protein S6 kinase alpha-1 (Q15418 whole entry): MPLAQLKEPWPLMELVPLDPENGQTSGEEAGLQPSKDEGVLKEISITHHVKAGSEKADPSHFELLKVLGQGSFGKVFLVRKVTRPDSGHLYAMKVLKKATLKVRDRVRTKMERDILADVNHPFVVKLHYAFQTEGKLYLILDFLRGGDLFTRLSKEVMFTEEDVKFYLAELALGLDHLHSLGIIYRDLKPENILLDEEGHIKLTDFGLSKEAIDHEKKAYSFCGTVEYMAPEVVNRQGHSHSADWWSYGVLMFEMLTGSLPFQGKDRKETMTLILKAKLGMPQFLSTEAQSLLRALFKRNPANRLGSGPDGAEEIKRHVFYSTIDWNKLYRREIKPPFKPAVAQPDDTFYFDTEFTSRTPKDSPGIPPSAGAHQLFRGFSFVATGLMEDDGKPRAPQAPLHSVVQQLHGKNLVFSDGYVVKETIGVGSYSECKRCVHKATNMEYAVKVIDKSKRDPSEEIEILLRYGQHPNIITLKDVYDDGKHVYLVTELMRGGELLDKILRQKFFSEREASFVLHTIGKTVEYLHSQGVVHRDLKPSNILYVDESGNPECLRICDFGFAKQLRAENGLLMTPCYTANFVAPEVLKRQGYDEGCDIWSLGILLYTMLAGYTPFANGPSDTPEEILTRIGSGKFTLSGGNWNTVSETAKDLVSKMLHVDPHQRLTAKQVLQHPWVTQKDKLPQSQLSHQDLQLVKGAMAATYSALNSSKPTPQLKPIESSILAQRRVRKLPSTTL

C=CC(=O)N1CCC(Cn2cc(-c3ccc4c(c3)OCO4)c3c(N)ncnc32)CC1
inhibition [1]: Active
IC50 [2]: 0.636 µM
IC50 [3]: > 10 µM
half-life at 100 µM [4]: 3.12 h
IC50 [5]: > 10 µM
AUCt [6]: 2522.28 ng·h/mL
IC50 [7]: > 10 µM
IC50 [8]: > 10 µM
IC50 [9]: > 10 µM
inhibition [10]: Dose-dependent effect
IC50 [11]: 0.504 µM
CLH [12]: 7.4 µL/min/mg
IC50 [13]: 1.11 µM
IC50 [14]: > 10 µM
CL [15]: 137 mL/min/kg
CLH [16]: 4.2 µL/min/mg
IC50 [17]: > 10 µM
half-life at 100 µM [18]: 5.25 h
IC50 [19]: > 10 µM
Activity [20]: Non-Toxic
IC50 [21]: > 10 µM
IC50 [22]: > 10 µM
IC50 [23]: > 10 µM
half-life at 100 µM [24]: 2.82 h
Activity [25]: Active
Activity [26]: Non-Toxic
IC50 [27]: > 10 µM
Activity [28]: Non-Toxic
IC50 [29]: > 10 µM
inhibition [30]: inactive
half-life at 100 µM [31]: 4.28 h
IC50 [32]: 1 µM
CL/F [33]: 45.8 mL/min/kg
Activity [34]: Active
Activity [35]: Non-Toxic
IC50 [36]: 1.13 µM
Activity [37]: Non-Toxic
AUC(0-t) at 24 h [38]: 1240 ng·h/mL
Cmax [39]: 258 ng/mL
inhibition [40]: Dose-dependent effect
IC50 [41]: > 10 µM
IC50 [42]: 0.657 µM
